From US11103523B2, “Self-assembled brush block copolymer-nanoparticles for drug delivery” (UNIVERSITY OF CONNECTICUT, priority 2013, dated 2021)

What was measured:
HeLa cells [1] = assay: Intracellular uptake in HeLa cells (confocal microscopy and flow cytometry); assay type: cell-based, human; details: 25 μg/mL DOX equivalents
Procedure: To observe the cellular uptake, HeLa cells were seeded at a density of 1.0×10^5 cells/well in an 8-well chamber of a Lab-Tek II chamber slide and pre-incubated for 24 h at 37° C. and 5% CO2. Serum-free DMEM containing free DOX and DOX-NPs at equivalent doses (25 μg/mL) was added to each well, followed by incubation for 2 h at 37° C. The cells were then rinsed with PBS, stained with 10 μM Draq5 and fixed with 4% formaldehyde solution for 10 min. Cover glasses were then placed on glass slides. The cellular uptake of free DOX and DOX-NPs was imaged by confocal laser scanning microscopy (Leica, England) at an excitation wavelength of 488 nm for DOX and 633 nm for Draq5.
To quantify cellular uptake, HeLa cells (5×10^5 cells/well) in 0.5 mL were grown on a 24-well plate at 37° C. in a humidified atmosphere of 5% CO2 for 24 h. Serum-free DMEM containing free DOX and DOX-NPs at equivalent doses (25 μg/mL) was added to the cells which were subsequently incubated for 2 h. The cells were then washed three times with PBS, harvested by trypsinization and transferred into Fluorescence Activated Cell Sorter (FACS) tubes. All samples were analyzed by flow cytometry (FACSCalibur, BD Biosciences, San Jose, Calif.) to determine cellular internalization. Fluorescence measurements of intracellular DOX were performed in the FL2 channel.

A549 cells = assay: Antitumor activity and systemic toxicity in SCID mice bearing subcutaneous A549 tumors; assay type: in vivo
Procedure: The antitumor efficacy of DOX and DOX-NPs was evaluated in SCID mice inoculated subcutaneously in the right flank with 0.1 mL PBS containing 2×10^6 A549 cells. When the tumors grew to approximately 20-30 mm^3 (9 days after tumor implantation), the mice were randomly divided into three groups (n=5-6), and this day was designated as day 0. The mice were injected intravenously twice a week via tail vein with saline (control), free DOX and DOX-NPs (100 μL) at 2.5 mg/kg of equivalent DOX. Antitumor activity was evaluated in terms of tumor volume which was calculated using the following equation: Tumor volume (mm^3)=width^2×length/2. The body weight was measured simultaneously as an indicator of the systemic toxicity.

[2] = Tissue distribution of DOX in A549 tumor-bearing SCID mice; assay type: in vivo; details: 24 h after i.v. 2.5 mg/kg equivalent DOX
Procedure: For the tissue distribution study, tumor-bearing severe combined immunodeficient (SCID) between 6 and 8 weeks-old mice were inoculated with 0.1 mL PBS containing 2×10^6 human lung cancer cells (A549) into the right flank. […] Twenty four hours after injection, mice were sacrificed for blood and organ collection including tumor, liver, spleen, kidney, lung, and heart. Tissues were then weighed and homogenized in the lysis buffer (0.1 M Tris-HCl, 2 mM EDTA, 0.1% Triton X-100) using a probe sonicator (Qsonica LLC, CT). The lysate of each tissue was centrifuged at 14,000 rpm for 20 min at 4° C. The blood was centrifuged at 3000 rpm for 10 min at 4° C.

HeLa cells [3] = assay: Cytotoxicity in HeLa cells, MTT; details: all DOX concentrations (1-50 μg/mL), 24 h
Procedure: HeLa cells (7500 cells/well) were seeded on 96-well plates and cultured in 200 μL of DMEM supplemented with 10% FBS, 1% antibiotics, and 1% L-glutamine for 24 h at 37° C. and 5% CO2. After incubation, various concentrations of the blank nanoparticles (0.2-1 mg/mL), DOX-NPs, and free DOX (1-50 μg/mL of DOX equivalents) dissolved in DMEM without supplements were added. After 24 h of incubation with free DOX and DOX-NPs, and 48 h with blank nanoparticles, cytotoxicity was determined using 3-[4,5-dimethylthiazol-2-yl]-3,5-diphenyltetrazolium bromide dye (MTT dye, final concentration of 0.5 mg/mL) uptake at 540 nm on a microplate reader (Tecan group Ltd., Mannedorf, Switzerland).

[4] = 2.5 mg/kg equivalent DOX, tumor-bearing SCID mice

COc1cccc2c1C(=O)c1c(O)c3c(c(O)c1C2=O)C[C@@](O)(C(=O)CO)C[C@@H]3O[C@H]1C[C@H](N)[C@H](O)[C@H](C)O1 [free DOX, doxorubicin]
mean fluorescence intensity (flow cytometry) (HeLa cells [1]; 2 h): greater fluorescence intensity than those treated with DOX-NPs
intracellular distribution of DOX fluorescence (CLSM) (HeLa cells [1]; 2 h of incubation): strong red color in the nuclei
effect on tumor growth (A549 cells; 2.5 mg/kg equivalent DOX i.v. twice a week): tumor growth was inhibited
decrease in body weight (A549 cells; [4]): 28.1±1.2%
survival (A549 cells; [4]): death of all mice within 11 days
tissue with greatest / lowest concentration of DOX [2]: greatest in the liver and lowest in the tumor
cytotoxicity comparison (HeLa cells [3]): significantly higher cytotoxicity than DOX-NPs
